Patent US20240270751A1, “Pyrazolopyridinone Compounds” (BeiGene Ltd., priority 2021, published 2024)

Key:
DGKα = DGKα (Homo sapiens (Human), UniProt P23743); experiment: Biochemical DGK IC50 assay, DGKα ADP-Glo assay; conditions: 7.5 nM enzyme, 140 μM ATP, 80 μM DAG
Protocol: (§1) Enzymatic reactions of DGKζ, DGKα and DGKδ were performed using ADP-Glo assay with lipid micelle substrate. […] Full length DGKα (D21-10BG, SignalChem) and full length DGKδ (D23-10G, SignalChem) were purchased. Lipid micelle was prepared by dissolving DAG (Sigma, 317505-10MG) and PS (Sigma, P7769-100MG) with chloroform which was furtherly removed by rotary evaporation. The resulted product was resuspended in buffer containing 25 mM HEPES pH 7.0, 0.5 mM EDTA and 160 mM Octyl β-D glucopyranoside by vigorous mixing and ultrasonic (IID, Scientz).
(§2) The ranges of compounds final concentration were 1.55˜10000 nM or 23.3˜150000 nM. 3 μL 2× enzyme solution was added to wells.

DGKζ = DGKζ (Homo sapiens (Human), UniProt Q13574); experiment: Biochemical DGK IC50 assay, DGKζ ADP-Glo assay; conditions: 0.5 nM enzyme, 140 μM ATP, 80 μM DAG; read-out: DGKζ ADP-Glo assay IC50
DGKζ, sequence (Q13574 other isoform, or with tags, fused parts or gaps): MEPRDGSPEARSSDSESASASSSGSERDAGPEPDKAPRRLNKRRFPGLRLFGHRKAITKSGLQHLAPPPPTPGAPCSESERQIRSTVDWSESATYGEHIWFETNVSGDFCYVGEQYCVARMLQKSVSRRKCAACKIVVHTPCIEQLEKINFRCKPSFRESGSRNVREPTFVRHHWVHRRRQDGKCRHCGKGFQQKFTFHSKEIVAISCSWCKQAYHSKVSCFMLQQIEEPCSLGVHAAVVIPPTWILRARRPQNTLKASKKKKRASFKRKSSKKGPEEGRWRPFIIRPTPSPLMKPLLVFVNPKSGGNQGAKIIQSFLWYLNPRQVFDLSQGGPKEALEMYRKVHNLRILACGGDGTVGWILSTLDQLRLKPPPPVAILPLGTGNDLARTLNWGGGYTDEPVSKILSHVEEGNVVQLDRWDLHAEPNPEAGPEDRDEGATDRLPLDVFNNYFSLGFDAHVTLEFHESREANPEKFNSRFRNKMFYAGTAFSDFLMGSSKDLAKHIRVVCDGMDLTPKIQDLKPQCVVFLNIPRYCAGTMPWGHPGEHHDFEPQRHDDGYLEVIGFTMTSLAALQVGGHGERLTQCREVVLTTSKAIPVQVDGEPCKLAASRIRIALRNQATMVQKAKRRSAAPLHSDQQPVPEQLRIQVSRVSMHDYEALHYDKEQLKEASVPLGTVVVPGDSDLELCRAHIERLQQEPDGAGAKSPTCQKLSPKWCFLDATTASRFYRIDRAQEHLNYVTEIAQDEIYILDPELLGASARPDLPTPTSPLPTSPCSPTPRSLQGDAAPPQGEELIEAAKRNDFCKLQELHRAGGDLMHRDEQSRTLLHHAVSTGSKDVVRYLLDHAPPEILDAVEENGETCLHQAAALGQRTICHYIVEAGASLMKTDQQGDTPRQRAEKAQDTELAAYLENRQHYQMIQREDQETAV
Protocol: as §1, §2
Human His-TEV-DGK-zeta-pFastBac1 and human baculovirus samples was generated using the Bac-to-Bac baculovirus expression system (Invitrogen) according to the manufacturer's protocol. The DNA used for expression of DGK-zeta, have SEQ ID Nos: 1. Baculovirus amplification was achieved using infected SF9 cells at 1:2000 virus/cells ratios, and grown for 96 hours at 27° C. post-transfected.
The expression scaled up for each protein was carried out in the […] from CORNING. 4 L of 3×10^6 cells/mL Sf9 cells (Expression System, Invitrogen) grown in SF900™ II SFM insect medium (Expression System) was infected with virus stock at 1:200 virus/cells ratio, and grown for 48 hours at 27° C. post-transfection. The infected cell culture was harvested by centrifugation at 6000 rpm for 15 min 4° C. in a SORVALL LYNX6000 centrifuge. The cell pellets were stored at −80° C.
Full length human DGKζ produced as described above, was purified from Sf9 baculovirus-infected insect cell paste. The cells were lysed using sonication method, and the lysates were clarified by centrifugation.

DGKα, sequence (P23743 whole entry): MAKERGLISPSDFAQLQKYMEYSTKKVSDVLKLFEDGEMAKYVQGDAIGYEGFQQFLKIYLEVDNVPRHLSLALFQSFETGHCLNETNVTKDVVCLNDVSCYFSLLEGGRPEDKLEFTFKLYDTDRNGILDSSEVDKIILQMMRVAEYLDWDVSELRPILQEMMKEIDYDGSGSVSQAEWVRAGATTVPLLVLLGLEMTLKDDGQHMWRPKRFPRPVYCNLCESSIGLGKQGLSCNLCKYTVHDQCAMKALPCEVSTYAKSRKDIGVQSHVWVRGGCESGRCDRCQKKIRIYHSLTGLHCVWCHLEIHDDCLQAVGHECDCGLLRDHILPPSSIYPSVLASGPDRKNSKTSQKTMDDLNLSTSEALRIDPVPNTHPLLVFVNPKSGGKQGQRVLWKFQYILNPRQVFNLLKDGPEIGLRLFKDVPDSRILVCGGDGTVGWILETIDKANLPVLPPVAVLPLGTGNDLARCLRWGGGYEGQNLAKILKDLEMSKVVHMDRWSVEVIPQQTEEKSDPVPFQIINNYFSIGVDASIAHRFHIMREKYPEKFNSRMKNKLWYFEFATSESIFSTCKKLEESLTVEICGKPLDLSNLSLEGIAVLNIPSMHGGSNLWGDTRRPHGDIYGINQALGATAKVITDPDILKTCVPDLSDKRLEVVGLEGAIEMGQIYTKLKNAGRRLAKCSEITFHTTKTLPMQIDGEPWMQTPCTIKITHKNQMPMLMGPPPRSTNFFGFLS

| Structure (SMILES) | IC50 (DGKα) | IC50 (DGKζ) |
| --- | --- | --- |
| CC(c1ccc2nccnc2c1)N1C[C@H](C)N(c2cc(=O)n(C)c3cn(C4CCC4)nc23)C[C@H]1C (some centres unmarked) [Compound A14] | 52000 nM | 12000 nM |
| CC(c1ccc2nccnc2c1)N1C[C@H](C)N(c2cc(=O)n(C)c3cn(C(C)C)nc23)C[C@H]1C (some centres unmarked) [Compound A18] | 5700 nM | 3700 nM |
| CC[C@H]1CN(C(C)c2ccc(F)cc2C(F)F)[C@H](CC)CN1c1cc(=O)n(C)c2cn(CC#N)nc12 (single isomer, unassigned) [Compound A172b] | 20400 nM | 14 nM |
| CC[C@H]1CN(C(C)c2ccc(F)cc2C(N)=O)[C@H](CC)CN1c1cc(=O)n(C)c2cn(CC#N)nc12 (some centres unmarked) [Compound A289] | > 10000 nM | 1130 nM |
| CC[C@H]1CN(C(C)c2ccc(F)cc2)[C@H](CC)CN1c1cc(=O)n(C)c2cn(CC#N)nc12 (some centres unmarked) [Compound A67] | 10 nM | 130 nM |
| CC(c1ccc(CN2CCOC(C)(C)C2)cc1)N1C[C@H](C)N(c2cc(=O)n(C)c3cn(CC#N)nc23)C[C@H]1C (stereo partly drawn) [Compound A341, 2-(7-((2S,5R)-4-(1-(4-((2,2-dimethylmorpholino)methyl)phenyl)ethyl)-2,5-dimethylpiperazin-1-yl)-4-methyl-5-oxo-4,5-dihydro-2H-pyrazolo[4,3-b]pyridin-2-yl)acetonitrile] | 1620 nM | 4250 nM |
| CC(c1ccc2nccnc2c1)N1C[C@H](C)N(c2cc(=O)n(C)c3cn(CC#N)nc23)C[C@H]1CO (stereo partly drawn) [Compound A99, 2-(7-((2S,5S)-5-(hydroxymethyl)-2-methyl-4-(1-(quinoxalin-6-yl)ethyl)piperazin-1-yl)-4-methyl-5-oxo-4,5-dihydro-2H-pyrazolo[4,3-b]pyridin-2-yl)acetonitrile] | > 10000 nM | 2790 nM |
| CC[C@H]1CN(C(C)c2ccc(OC(F)(F)F)cn2)[C@H](CC)CN1c1cc(=O)n(C)c2cn(CC#N)nc12 (some centres unmarked) [Compound A361] | 5.1 nM | 554 nM |
| CC[C@H]1CN(C(C)c2ccc(CN3CCOC(C)(C)C3)cc2)[C@H](CC)CN1c1cc(=O)n(C)c2cn(CC#N)nc12 (some centres unmarked) [Compound A342] | 229 nM | 353 nM |
| CC=CCn1cc2c(n1)c(N1C[C@@H](C)N([C@@H](C)c3ccc4ncc(C)nc4c3)C[C@@H]1C)cc(=O)n2C [Compound A302, 2-(but-2-en-1-yl)-7-((2S,5R)-2,5-dimethyl-4-((S)-1-(3-methylquinoxalin-6-yl)ethyl)piperazin-1-yl)-4-methyl-2,4-dihydro-5H-pyrazolo[4,3-b]pyridin-5-one] | 35400 nM | 68 nM |
| CCC(c1ccc(C(C)(C)C#N)cc1)N1C[C@H](CC)N(c2cc(=O)n(C)c3cn(CC#N)nc23)C[C@H]1CC (stereo partly drawn) [Compound A339, 2-(4-(1-((2R,5S)-4-(2-(cyanomethyl)-4-methyl-5-oxo-4,5-dihydro-2H-pyrazolo[4,3-b]pyridin-7-yl)-2,5-diethylpiperazin-1-yl)propyl)phenyl)-2-methylpropanenitrile] | 5360 nM | 361 nM |
| CC[C@@H]1CN(c2cc(=O)[nH]c3cn(CC#N)nc23)[C@@H](C)CN1C(C)c1ccc2nccnc2c1 (single isomer, unassigned) [Compound A177a] | 8210 nM | 70 nM |
| CC[C@H]1CN(C(C)c2ccc(F)cc2C(=O)OC)[C@H](CC)CN1c1cc(=O)n(C)c2cn(CC#N)nc12 (some centres unmarked) [Compound A290] | 56400 nM | 425 nM |
| CC(c1ccc2nccnc2c1)N1C[C@H](C)N(c2cc(=O)[nH]c3cn(CC#N)nc23)C[C@H]1C (single isomer, unassigned) [Compound A260, 2-(7-((2S,5R)-2,5-dimethyl-4-((R)-1-(quinoxalin-6-yl)ethyl)piperazin-1-yl)-5-oxo-4,5-dihydro-2H-pyrazolo[4,3-b]pyridin-2-yl)acetonitrile, or 2-(7-((2S,5R)-2,5-dimethyl-4-((S)-1-(quinoxalin-6-yl)ethyl)piperazin-1-yl)-5-oxo-4,5-dihydro-2H-pyrazolo[4,3-b]pyridin-2-yl)acetonitrile] | > 10000 nM | 394 nM |
| COC[C@H]1CN(C(C)c2ccc3nccnc3c2)[C@H](C)CN1c1cc(=O)n(C)c2cn(CC#N)nc12 (stereo partly drawn) [Compound A143, 2-(7-((2R,5R)-2-(methoxymethyl)-5-methyl-4-(1-(quinoxalin-6-yl)ethyl)piperazin-1-yl)-4-methyl-5-oxo-4,5-dihydro-2H-pyrazolo[4,3-b]pyridin-2-yl)acetonitrile] | > 10000 nM | 253 nM |
| CC(c1ccc(F)cc1C(F)F)N1C[C@H](C)N(c2cc(=O)n(C)c3cn(CC#N)nc23)C[C@H]1C (some centres unmarked) [Compound A252] | > 10000 nM | 1370 nM |

| Structure (SMILES) | IC50 (DGKα) | IC50 (DGKζ) |
| --- | --- | --- |
| CC[C@H]1CN(C(C)c2ccc(CN3CCC(F)(F)CC3)nc2)[C@H](CC)CN1c1cc(=O)n(C)c2cn(CC#N)nc12 (single isomer, unassigned) [Compound A381b] | 2090 nM | 2330 nM |
| CC[C@H]1CN(C(C)c2ccc(F)cc2CO)[C@H](CC)CN1c1cc(=O)n(C)c2cn(CC#N)nc12 (stereo partly drawn) [Compound A152, 2-(7-((2S,5R)-2,5-diethyl-4-(1-(4-fluoro-2-(hydroxymethyl)phenyl)ethyl)piperazin-1-yl)-4-methyl-5-oxo-4,5-dihydro-2H-pyrazolo[4,3-b]pyridin-2-yl)acetonitrile] | 4380 nM | 1770 nM |
| CC[C@H]1CN(C(C)c2ccc(C)c(C)c2)[C@H](CC)CN1c1cc(=O)n(C)c2cn(CC#N)nc12 (some centres unmarked) [Compound A384] | 1750 nM | 99 nM |
| CC[C@@H]1CN(c2cc(=O)n(C)c3cn(CC#N)nc23)[C@@H](C)CN1C(C)c1ccc(F)cc1C(F)(F)F (single isomer, unassigned) [Compound A218b] | > 10000 nM | 3960 nM |
| CC[C@H]1CN(C(C)c2ccc(C(F)(F)F)cc2)[C@H](CC)CN1c1cc(=O)n(C)c2cn(CC#N)nc12 (single isomer, unassigned) [Compound A103b] | 809 nM | 2690 nM |
| CC[C@H]1CN([C@H](C)c2nc3ncccc3n2CC)[C@H](CC)CN1c1cc(=O)n(C)c2cn(CC#N)nc12 (single isomer, unassigned) [Compound A215a] | > 10000 nM | > 10000 nM |
| CC[C@H]1CN(C(C)c2ccc(F)c(F)c2C(F)(F)F)[C@H](CC)CN1c1cc(=O)n(C)c2cn(CC#N)nc12 (some centres unmarked) [Compound A288] | 3400 nM | 263 nM |
| CC[C@@H]1CN(c2cc(=O)n(C)c3cn(CC#N)nc23)CCN1C(C)c1ccc2nccnc2c1 (single isomer, unassigned) [Compound A161b] | 78200 nM | 93 nM |
| CCC(c1ccc(F)cc1C(F)(F)F)N1C[C@H](CC)N(c2cc(=O)n(C)c3cn(CC#N)nc23)C[C@H]1CC (some centres unmarked) [Compound A293] | 9950 nM | 237 nM |
| CC#CCn1cc2c(n1)c(N1C[C@@H](CC)N(C(C)c3cnc4ccccc4n3)C[C@@H]1C)cc(=O)n2C (single isomer, unassigned) [Compound A394a] | 454 nM | 5400 nM |
| CC#CCn1cc2c(n1)c(N1C[C@@H](C)N(C(C)c3ccc4c(c3)OC(C)(C)O4)C[C@@H]1C)cc(=O)n2C (stereo partly drawn) [Compound A390, 2-(but-2-yn-1-yl)-7-((2S,5R)-4-(1-(2,2-dimethylbenzo[d][1,3]dioxol-5-yl)ethyl)-2,5-dimethylpiperazin-1-yl)-4-methyl-2,4-dihydro-5H-pyrazolo[4,3-b]pyridin-5-one] | 4580 nM | 490 nM |
| CC[C@H]1CN(C(C)c2ccncc2OC)[C@H](CC)CN1c1cc(=O)n(C)c2cn(CC#N)nc12 (some centres unmarked) [Compound A91] | > 10000 nM | 533 nM |
| C=CCn1cc2c(n1)c(N1C[C@@H](C)N(C(C)c3ccc4nccnc4c3)C[C@@H]1C)cc(=O)n2C (single isomer, unassigned) [Compound A299, 2-allyl-7-((2S,5R)-2,5-dimethyl-4-((S)-1-(quinoxalin-6-yl)ethyl)piperazin-1-yl)-4-methyl-2,4-dihydro-5H-pyrazolo[4,3-b]pyridin-5-one, or 2-allyl-7-((2S,5R)-2,5-dimethyl-4-((R)-1-(quinoxalin-6-yl)ethyl)piperazin-1-yl)-4-methyl-2,4-dihydro-5H-pyrazolo[4,3-b]pyridin-5-one] | 66100 nM | 90 nM |
| COc1cc(F)c(C(C)N2C[C@H](C)N(c3cc(=O)n(C)c4cn(CC#N)nc34)C[C@H]2C)c(F)c1 (some centres unmarked) [Compound A32] | 1200 nM | 230 nM |
| C[C@@H]1CN(c2cc(=O)n(C)c3cn(CC#N)nc23)[C@@H](C)CN1[C@H](C)c1ccc2nccnc2c1 [Compound A2b, 2-(7-((2S,5R)-2,5-dimethyl-4-((R)-1-(quinoxalin-6-yl)ethyl)piperazin-1-yl)-4-methyl-5-oxo-4,5-dihydro-2H-pyrazolo[4,3-b]pyridin-2-yl)acetonitrile] | 19000 nM | 13000 nM |
